Each structure is given as a SMILES string.

T1 sequence (P41594 21-1212): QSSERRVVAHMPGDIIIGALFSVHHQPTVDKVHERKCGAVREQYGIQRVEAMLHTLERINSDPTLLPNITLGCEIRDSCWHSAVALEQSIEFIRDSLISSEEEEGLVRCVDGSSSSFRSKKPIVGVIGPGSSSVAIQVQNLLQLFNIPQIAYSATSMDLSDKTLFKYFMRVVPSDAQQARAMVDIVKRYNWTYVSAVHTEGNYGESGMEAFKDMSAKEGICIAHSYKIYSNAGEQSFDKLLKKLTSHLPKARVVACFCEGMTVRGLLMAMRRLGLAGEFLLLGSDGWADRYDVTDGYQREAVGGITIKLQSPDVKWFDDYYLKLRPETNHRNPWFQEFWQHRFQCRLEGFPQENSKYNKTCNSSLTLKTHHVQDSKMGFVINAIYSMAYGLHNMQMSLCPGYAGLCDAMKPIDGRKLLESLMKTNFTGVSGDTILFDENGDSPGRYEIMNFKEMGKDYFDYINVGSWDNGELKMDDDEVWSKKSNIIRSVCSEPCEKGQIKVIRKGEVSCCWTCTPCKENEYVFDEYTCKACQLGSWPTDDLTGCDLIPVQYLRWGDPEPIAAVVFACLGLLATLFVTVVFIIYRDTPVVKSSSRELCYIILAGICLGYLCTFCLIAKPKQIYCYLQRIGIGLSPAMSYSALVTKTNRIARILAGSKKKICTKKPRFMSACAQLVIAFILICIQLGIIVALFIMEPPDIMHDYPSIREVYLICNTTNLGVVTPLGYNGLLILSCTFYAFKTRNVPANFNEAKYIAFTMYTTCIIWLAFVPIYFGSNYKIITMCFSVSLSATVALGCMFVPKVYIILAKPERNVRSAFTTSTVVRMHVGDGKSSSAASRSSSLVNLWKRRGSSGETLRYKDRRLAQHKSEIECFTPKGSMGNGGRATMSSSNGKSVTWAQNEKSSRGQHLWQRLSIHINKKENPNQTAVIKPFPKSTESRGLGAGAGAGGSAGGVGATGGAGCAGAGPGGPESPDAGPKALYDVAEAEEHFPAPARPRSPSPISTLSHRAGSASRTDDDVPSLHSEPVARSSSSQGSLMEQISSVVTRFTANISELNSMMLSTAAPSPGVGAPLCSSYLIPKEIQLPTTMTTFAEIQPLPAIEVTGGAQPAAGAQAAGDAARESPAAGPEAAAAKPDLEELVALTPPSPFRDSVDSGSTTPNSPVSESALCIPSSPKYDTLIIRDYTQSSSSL

This assay has as its target T1, human recombinant mGluR5 (Homo sapiens, UniProt P41594).
T1 construct: expressed in transfected cells; host or cells: HEK 293 cell line, cultured with tetracycline, hygromycin and geneticin; tetracycline is withdrawn 3-7 days before the assay
In words: positive modulation of mGluR5, calcium based FLIPR assay. The assay is classed as cell-based. The conditions noted are these: EC50 of the modulation; HEK 293 cell line expressing human recombinant mGluR5; peak height of Ca fluorescence signal after glutamate at approx. 5% basal stimulation; read-out: EC50. In outline: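 HEK 293 cells expressing human recombinant mGluR5, tetracycline-free before assay, loaded with Calcium-4 dye in Ringer solution pH 7.4. Compounds (1% DMSO final) added for 5 min, then glutamate at about 5% of maximal effect; FLIPR peak Ca signal scaled between 1% DMSO (100%) and 10 μM CDPPB (200%) controls, EC50 by nonlinear regression.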
With `CCc1nnc(N2CCN(C(=O)Cn3nc(-c4ccc(F)cc4)nc3-c3ccc(F)cc3)CC2)o1` [Example 7.03.044.], the EC50 came to 96 nM.
For `COC(=O)c1ccc2c(c1)CCN(C(=O)Cn1nc(-c3ccc(F)cc3)nc1-c1ccc(F)cc1)C2` [Example 7.02.33.] the value was 309 nM; for `O=C(Cn1nc(-c2ccc(F)cc2)nc1-c1ccc(F)cc1)N1CCc2nc(N3CCCC3)sc2CC1` [Example 7.04.01., 2-[3,5-bis-(4-Fluoro-phenyl)-(1,2,4)triazol-1-yl)-1-(2-pyrrolidin-1-yl-4,5,7,8-tetrahydro-thiazolo[4,5-d]azepin-6-yl)-ethanone], 678 nM; for `COc1cccc(N2CCN(C(=O)Cn3nc(-c4ccc(F)c(C)c4)nc3C3CCCC3)CC2=O)c1` [Example 7.03.104.], 679 nM.
Regarding `O=C(Cn1nc(-c2ccc(F)cc2)nc1-c1ccc(F)cc1)N1CCC(c2ncccn2)CC1` [Example 7.03.012.], the EC50 stood at 1470 nM.
With `Cc1nc2c(s1)CN(C(=O)Cn1nc(-c3ccc(F)cc3)nc1-c1ccc(F)cc1)C2` [Example 7.02.23.], the EC50 stood at 278 nM.
In the case of `Cc1nc2c(s1)CCN(C(=O)Cn1nc(-c3ccc(F)c(C)c3)nc1C1CCC(C)CC1)CC2` (stereo not drawn) [Example 7.03.090.], the EC50 is 420 nM.
As to `Cc1cnc(C2CCN(C(=O)Cn3nc(-c4ccc(F)cc4)nc3-c3ccc(F)cc3)CC2)o1` [Example 7.03.035.], the EC50 was 170 nM.
Take `O=C(Cn1nc(-c2ccc(F)cc2)nc1-c1ccc(F)cc1)N1CCN(c2ccccc2F)C(=O)C1` [Example 7.02.14.]: the EC50 is 537 nM.
For `COc1cccc(C2=CCN(C(=O)Cn3nc(-c4ccc(F)cc4)nc3-c3ccc(F)cc3)CC2)c1` [Example 7.03.021.] the value was 228 nM; for `O=C(Cn1nc(-c2ccc(F)cc2)nc1-c1ccc(F)cc1)N1CCN(c2nccc3sccc23)CC1` [Example 07.03.136.], 498 nM.
On to `CN(C)c1nc2c(s1)CCN(C(=O)Cn1nc(-c3ccc(F)cc3)nc1-c1ccc(F)cc1)CC2` [Example 7.04.03.], for which the EC50 turned out to be 346 nM.
On to `Cc1cnc(C2=CCN(C(=O)Cn3nc(-c4ccc(F)cc4)nc3-c3ccc(F)cc3)CC2)o1` [Example 7.03.036.], for which the EC50 came to 49 nM.
In the case of `O=C(Cn1nc(-c2ccc(F)cc2)nc1-c1ccc(F)cc1)N1Cc2ccncc2C1` [Example 7.02.40.], the EC50 came out at 1760 nM.
For `Nc1ccc2c(c1)CCN(C(=O)Cn1nc(-c3ccc(F)cc3)nc1-c1ccc(F)cc1)CC2` [Example 7.02.26.] the value was 518 nM.
Take `O=C(Cn1nc(-c2ccc(F)cc2)nc1-c1ccc(F)cc1)N1CCC(c2ccccn2)CC1` [Example 7.03.027.]: the EC50 worked out at 739 nM.
Turning to `COc1ccc(-c2nc(-c3ccccc3)n(CC(=O)N3CCc4nc(N)sc4CC3)n2)cc1` [Example 7.03.051.], the EC50 turned out to be 282 nM.
As to `O=C(Cn1nc(-c2ccc(F)cc2)nc1-c1ccc(F)cc1)N1CCc2nc(N3CCCCC3)sc2CC1` [Example 7.04.04.], the EC50 is 561 nM.
For `Cn1c(=O)n(C2(C)CCN(C(=O)Cn3nc(-c4ccc(F)cc4)nc3-c3ccc(F)cc3)CC2)c2ccccc21` [Example 7.02.34.] the value was 1460 nM; for `COc1cc(-c2nc(-c3ccc(F)cc3)n(CC(=O)N3CCc4nc(N)sc4CC3)n2)ccc1F` [Example 7.03.088.], 60 nM; for `CCNC(=O)Nc1nc2c(s1)CN(C(=O)Cn1nc(-c3ccc(F)cc3)nc1-c1ccc(F)cc1)CC2` [Example 7.02.15.], 646 nM.

Values taken from patent US8642774B2, “Compounds” (Boehringer Ingelheim International GmbH, priority 2011, dated 2014).
